Data as given in article PMC2912373, “Low-Density Lipoprotein Receptor-Related Protein 1 (LRP1) Mediates Neuronal Aβ42 Uptake and Lysosomal Trafficking” (PLoS ONE, 2010).

Test system: N2a-mLRP4-Tless cells
Assay: FAM-Aβ42 uptake in LRP1 endocytosis-deficient cells, FACS
Type: cell-based, mouse
Conditions: 500 nM, 48 h, pronase-treated and untreated cells
Text: To determine whether the endocytic function of LRP1 is required for Aβ42 internalization and accumulation, we first analyzed the effect of clathrin knockdown on the uptake of FAM-Aβ42 in N2a-mLRP4 cells. We decreased the expression of clathrin heavy chain by lentiviral-mediated delivery of small hairpin interfering RNA (shRNA) in N2a-mLRP4 cells and analyzed cell surface levels of mLRP4 by FACS. Lentiviral-mediated knockdown of clathrin heavy chain substantially decreases the protein levels of clathrin heavy chain and evokes a twofold-increase in the levels of cell surface mLRP4 in N2a cells (Fig. 4A), consistent with an impairment of clathrin-mediated endocytosis of this LRP1 minireceptor. […] As a control for specificity, we analyzed the uptake of a FAM-Aβ42 peptide that contained the same amino acid composition but in a scrambled sequence. […] To further confirm this, we specifically targeted the endocytic function of mLRP4 and analyzed the internalization of FAM-Aβ42 in LRP1 endocytosis-deficient cells. […]
Figure 4 LRP1 endocytosis is required for Aβ42 uptake and accumulation in N2a cells. […] The levels of cell surface and total pools of mLRP4 were determined by flow cytometric analyses with anti-HA antibody in non-permeabilized and saponin-treated cells, respectively. The surface-to-total ratio were calculated and plotted as fold-change to control-infected cells. […]

## FAM-Aβ42: FAM-Aβ42 peptide (23526) from Anaspec; amyloid-β 42 with carboxyfluorescein at the N-terminal region
  FAM-Aβ42 uptake in N2a-mLRP4-Tless compared to N2a-pcDNA3 cells: similar
